In patent US20230092890A1, “1, 3, 4-Oxadiazole derivative compounds as histone deacetylase 6 inhibitor, and the pharmaceutical composition comprising the same” (Chong Kun Dang Pharmaceutical Corp., priority 2019, published 2023) one finds IC50 data, which are given here for nine compounds.

The target in one assay is T1, HDAC6 human recombinant (Homo sapiens, UniProt Q9UBN7).
T1 construct: purchased Calbiochem 382180
T1 sequence (Q9UBN7 1-1215): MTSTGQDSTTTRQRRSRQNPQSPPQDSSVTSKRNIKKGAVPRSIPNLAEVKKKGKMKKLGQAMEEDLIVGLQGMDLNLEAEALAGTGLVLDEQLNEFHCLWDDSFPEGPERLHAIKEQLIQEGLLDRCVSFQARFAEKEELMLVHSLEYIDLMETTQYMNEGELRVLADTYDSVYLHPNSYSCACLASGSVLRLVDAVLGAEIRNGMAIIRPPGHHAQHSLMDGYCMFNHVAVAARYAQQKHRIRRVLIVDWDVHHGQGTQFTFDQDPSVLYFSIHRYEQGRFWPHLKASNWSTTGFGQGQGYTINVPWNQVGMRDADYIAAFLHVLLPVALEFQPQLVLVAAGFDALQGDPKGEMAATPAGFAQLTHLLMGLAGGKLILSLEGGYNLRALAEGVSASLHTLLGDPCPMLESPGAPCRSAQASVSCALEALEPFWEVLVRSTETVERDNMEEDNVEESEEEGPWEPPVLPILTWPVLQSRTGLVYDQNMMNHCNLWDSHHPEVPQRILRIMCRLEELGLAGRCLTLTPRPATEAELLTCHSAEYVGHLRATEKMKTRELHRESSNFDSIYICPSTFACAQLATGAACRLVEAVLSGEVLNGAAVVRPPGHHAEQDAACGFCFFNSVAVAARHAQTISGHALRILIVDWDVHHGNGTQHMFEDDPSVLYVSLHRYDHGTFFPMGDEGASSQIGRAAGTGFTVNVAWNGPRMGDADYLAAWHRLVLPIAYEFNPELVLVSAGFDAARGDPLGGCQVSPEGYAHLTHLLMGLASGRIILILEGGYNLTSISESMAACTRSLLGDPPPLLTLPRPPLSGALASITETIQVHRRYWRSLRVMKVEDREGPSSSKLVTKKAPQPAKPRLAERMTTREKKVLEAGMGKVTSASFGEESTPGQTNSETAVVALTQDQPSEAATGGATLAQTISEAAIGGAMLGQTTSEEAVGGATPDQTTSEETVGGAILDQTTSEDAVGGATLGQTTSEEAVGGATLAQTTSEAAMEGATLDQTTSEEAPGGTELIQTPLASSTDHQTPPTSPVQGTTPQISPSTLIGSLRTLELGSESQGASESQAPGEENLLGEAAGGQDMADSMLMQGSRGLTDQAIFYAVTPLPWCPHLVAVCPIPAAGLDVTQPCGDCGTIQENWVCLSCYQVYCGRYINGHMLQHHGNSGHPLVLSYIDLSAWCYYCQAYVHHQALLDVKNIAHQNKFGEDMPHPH
In words: HDAC enzyme activity inhibition (in vitro), HDAC6 assay. The class given is biochemical. To be noted: samples at 0.1, 1, 10, 100 and 1000 nM; 37° C. 60 minutes; fluorescence Ex 390, Em 460; read-out: HDAC6 IC50. Put shortly: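 HDAC6 human recombinant enzyme with fluorimetric substrate; […]. Reaction 60 min at 37° C, then developer 30 min at 37° C; fluorescence read at Ex 390/Em 460.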

The target of the next assay is T2, HDAC1 (Homo sapiens, UniProt Q13547).
T2 construct: purchased Enzolifesciences BML-AK511
T2 sequence (Q13547 whole entry): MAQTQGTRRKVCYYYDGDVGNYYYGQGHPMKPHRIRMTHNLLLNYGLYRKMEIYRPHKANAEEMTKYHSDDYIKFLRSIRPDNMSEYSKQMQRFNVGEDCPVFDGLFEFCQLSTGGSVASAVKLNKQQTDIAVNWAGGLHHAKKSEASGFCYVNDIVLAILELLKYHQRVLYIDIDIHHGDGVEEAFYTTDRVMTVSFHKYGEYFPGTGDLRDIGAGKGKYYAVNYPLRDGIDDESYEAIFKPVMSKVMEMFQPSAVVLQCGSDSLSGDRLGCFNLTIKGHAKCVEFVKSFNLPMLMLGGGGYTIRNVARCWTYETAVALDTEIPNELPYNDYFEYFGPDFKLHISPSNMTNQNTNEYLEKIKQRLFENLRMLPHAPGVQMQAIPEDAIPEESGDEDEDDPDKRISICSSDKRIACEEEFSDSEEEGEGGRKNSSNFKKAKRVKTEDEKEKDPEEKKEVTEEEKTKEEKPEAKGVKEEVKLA
Put plainly: HDAC enzyme activity inhibition (in vitro), HDAC1 Fluorimetric Drug Discovery Assay Kit. The class given is biochemical. To be noted: samples at 100, 1000 and 10000 nM; 37° C. 60 minutes; fluorescence Ex 390, Em 460; read-out: HDAC1 IC50. Put shortly: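 Compound incubated with enzyme 60 min at 37° C, then developer 30 min at 37° C; fluorescence read at Ex 390/Em 460. HDAC1 via fluorimetric kit, compounds at 100, 1000 and 10000 nM; HDAC6 human recombinant, compounds at 0.1, 1, 10, 100 and 1000 nM.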

As a reminder, the IC50 is the midpoint of a concentration-inhibition curve. Take `Cc1noc(C)c1-c1ccc2c(c1)n(C1CCN(C)CC1)c(=O)n2Cc1ccc(-c2nnc(C(F)F)o2)cn1` [Compound 210, 1-((5-(5-(difluoromethyl)-1,3,4-oxadiazole-2-yl)pyridine-2-yl)methyl)-5-(3,5-dimethylisoxazole-4-yl)-3-(1-methylpiperidine-4-yl)-1,3-dihydro-2H-benzo[d]imidazole-2-one]: the half-maximal inhibitory concentration (IC50) on HDAC6 human recombinant was 38 nM; on HDAC1, greater than 10000 nM.

Take `CN1CCC(n2c(=O)n(Cc3ccc(-c4nnc(C(F)F)o4)cn3)c3ccc(-c4cnoc4)cc32)CC1` [Compound 211, 1-((5-(5-(difluoromethyl)-1,3,4-oxadiazole-2-yl)pyridine-2-yl)methyl)-5-(isoxazole-4-yl)-3-(1-methylpiperidine-4-yl)-1,3-dihydro-2H-benzo[d]imidazole-2-one]: the IC50 at HDAC6 human recombinant was 48 nM; at HDAC1, greater than 10000 nM.

For the compound `Cn1c(=O)n(Cc2ccc(-c3nnc(C(F)F)o3)cn2)c2ccc(-c3cccc4[nH]ccc34)cc21` [Compound 212, 1-((5-(5-(difluoromethyl)-1,3,4-oxadiazole-2-yl)pyridine-2-yl)methyl)-5-(1H-indole-4-yl)-3-methyl-1,3-dihydro-2H-benzo[d]imidazole-2-one], the 50% inhibitory concentration (IC50) on HDAC6 human recombinant was 10 nM; at HDAC1, greater than 10000 nM.

`CN1CCC(n2c(=O)n(Cc3ccc(-c4nnc(C(F)F)o4)cn3)c3cc(Cl)ccc32)CC1` [Compound 213, 5-chloro-3-((5-(5-(difluoromethyl)-1,3,4-oxadiazole-2-yl)pyridine-2-yl)methyl)-1-(1-methylpiperidine-4-yl)-1,3-dihydro-2H-benzo[d]imidazole-2-one]: the values for the IC50 on HDAC6 human recombinant and at HDAC1 were 14 nM and greater than 10000 nM, respectively.

Regarding `CC(C)N1CCC(n2c(=O)n(Cc3ccc(-c4nnc(C(F)F)o4)cn3)c3cc(Cl)ccc32)CC1` [Compound 214, 5-chloro-3-((5-(5-(difluoromethyl)-1,3,4-oxadiazole-2-yl)pyridine-2-yl)methyl)-1-(1-isopropylpiperidine-4-yl)-1,3-dihydro-2H-benzo[d]imidazole-2-one], the IC50 was 15 nM on HDAC6 human recombinant and greater than 10000 nM at HDAC1.

On to `CC(=O)N1CCC(n2c(=O)n(Cc3ccc(-c4nnc(C(F)F)o4)cn3)c3cc(Cl)ccc32)CC1` [Compound 215, 1-(1-acetylpiperidine-4-yl)-5-chloro-3-((5-(5-(difluoromethyl)-1,3,4-oxadiazole-2-yl)pyridine-2-yl)methyl)-1,3-dihydro-2H-benzo[d]imidazole-2-one], for which the IC50 is 20 nM on HDAC6 human recombinant and greater than 10000 nM on HDAC1.

For `CS(=O)(=O)N1CCC(n2c(=O)n(Cc3ccc(-c4nnc(C(F)F)o4)cn3)c3cc(Cl)ccc32)CC1` [Compound 216, 5-chloro-3-((5-(5-(difluoromethyl)-1,3,4-oxadiazole-2-yl)pyridine-2-yl)methyl)-1-(1-(methylsulfonyl)piperidine-4-yl)-1,3-dihydro-2H-benzo[d]imidazole-2-one], the figures for the IC50 on HDAC6 human recombinant and on HDAC1 were 18 nM and greater than 10000 nM, respectively.

For `CN1CCC(n2c(=O)n(Cc3ccc(-c4nnc(C(F)F)o4)cn3)c3cc(F)c(-c4cccc5[nH]ccc45)cc32)CC1` [Compound 217, 1-((5-(5-(difluoromethyl)-1,3,4-oxadiazole-2-yl)pyridine-2-yl)methyl)-6-fluoro-5-(1H-indole-4-yl)-3-(1-methylpiperidine-4-yl)-1,3-dihydro-2H-benzo[d]imidazole-2-one], the IC50 at HDAC6 human recombinant was 6 nM; at HDAC1 it was greater than 10000 nM.

As for `Cc1ccc(-c2ccc3c(c2)n(C)c(=O)n3Cc2ccc(-c3nnc(C(F)F)o3)cn2)o1` [Compound 218, 1-((5-(5-(difluoromethyl)-1,3,4-oxadiazole-2-yl)pyridine-2-yl)methyl)-3-methyl-5-(5-methylfuran-2-yl)-1,3-dihydro-2H-benzo[d]imidazole-2-one], the concentration for half-maximal inhibition (IC50) at HDAC6 human recombinant was 44 nM; on HDAC1, greater than 10000 nM.
